Test system: Salmonella Typhi PhoP-promoter GFP reporter, fluorescence, 4 h
Assay: Inhibition of PhoP regulon, Salmonella typhi GFP reporter cells, confirmation, 4 h (AID 1850)

| Structure (SMILES) | IC50 |
| --- | --- |
| C#CCOCCOCCOCCNc1nc(N2CCN(C(=O)CCCCCCCCCCNC(=O)[C@@H](CCSC)n3cc(CCO)nn3)CC2)nc(N2CCN(C(=O)CCCCCCCCCCNC(=O)[C@H]([C@@H](C)CC)n3cc(CCCCN=C(N)N)nn3)CC2)n1 | 82.7 µM |
| COc1ccc(C(=O)NC(=S)NNC(=O)c2cccc(C)c2)cc1 | 61.4 µM |
| Cc1ccc(NC(=O)CNCc2ccccc2)cc1Br | 52.9 µM |
| O=CN/N=C/c1c(O)ccc2ccccc12 | 35.4 µM |
| CNC(CC(=O)c1ccc([N+](=O)[O-])cc1)C(Cl)(Cl)Cl (configuration not stated) | 95 µM |
| C#CCOCCOCCOCCNc1nc(N2CCN(C(=O)CCCCCCCCCCNC(=O)[C@H](CCCCN)n3cc(C)nn3)CC2)nc(N2CCN(C(=O)CCCCCCCCCCNC(=O)[C@H](CCCN=C(N)N)n3cc(C[C@@H](C)CC)nn3)CC2)n1 | 32.5 µM |
| O=C(N/N=C/c1cc(O)ccc1Br)c1cccnc1 | 38.5 µM |
| CCc1cccc(NC(=O)CSC2=NS(=O)(=O)c3ccccc32)c1 | 37.3 µM |
| CCCCNC1=CC(=O)C(=O)c2ccccc21 | 13.8 µM |
| Cc1ccc(-c2cc(-c3ccc(C)cc3)[n+](-c3ccccc3)c(-c3ccc(C)cc3)c2)cc1 | 35 µM |
| CC(C)(C)/C(O)=C/c1nc2cc(Cl)ccc2oc1=O | 18.2 µM |
| O=C(Cc1ccccc1)N/N=C/c1cc(Br)cc(Cl)c1O | 32.7 µM |
| CCCCN(CCCC)C(=O)c1cn(CC)c2cc(N3CCN(C)CC3)c(F)cc2c1=O | 4.23 µM |
| CCC(C)(C)c1ccc(OCCCC[n+]2ccccc2)c(C(C)(C)CC)c1 | 19.2 µM |
| CN1CCN(C2Cc3ccc(Cl)cc3Sc3ccc(F)cc32)CC1 (configuration not stated) | 37.8 µM |
| Oc1ccccc1Nc1nc(NCc2ccco2)c2ccccc2n1 | 34.8 µM |
| COc1ccc2[nH]c3c(C)c4ccncc4c(C)c3c2c1 | 20.5 µM |
| CN(C)CCCN(C(=O)c1ccc2c(c1)CCCC2)c1nc2ccc(Cl)cc2s1 | 83.7 µM |
| CCCCC(CC)CN=C(N)NC(N)=NCCCCCCN=C(N)NC(N)=NCC(CC)CCCC (configuration not stated) | 2.73 µM |
| CCN(CCNCC(O)COc1ccccc1C(C)C)c1cccc(C)c1 (configuration not stated) | 32.5 µM |
| Cc1cc(OCC(O)CNC(C)c2ccccc2)ccc1C(C)C (configuration not stated) | 38.1 µM |
| CCC[C@H](CN[C@@H](CNC)[C@H](C)CC)NCCc1cc(C(F)(F)F)cc(C(F)(F)F)c1 | 34.6 µM |
| CCCCCCCCCn1c2c(c(=N)c3c1CCC3)CCC2 | 17.4 µM |

| Structure (SMILES) | IC50 |
| --- | --- |
| CCSc1ccc2c(c1)N(CCCN1CCN(C)CC1)c1ccccc1S2 | 45.5 µM |
| O=C(N/N=C/c1sc2ccccc2c1O)c1cccc2ccccc12 | 70.5 µM |
| CCCCCCCCCCCCCCCC[n+]1ccc(/C=N/O)cc1 | 26.2 µM |
| C/C(=N\NC(=O)c1cccc(Br)c1)c1ccccn1 | 36.6 µM |
| CN1CCN(C(c2cccc(Cl)c2)c2ccccc2Cl)CC1 (configuration not stated) | 103 µM |
| O=C(CCN1CCOCC1)N/N=C/c1cc(Br)cc(Br)c1O | 31.1 µM |
| Cc1ccc(C(=O)O)cc1N=Cc1cc(Br)cc(Br)c1O | 27.4 µM |
| Oc1ccc(CN2CCN(Cc3ccccc3)CC2)c2cccnc12 | 33.5 µM |
| OCCCNc1c2ccccc2nc2ccccc12 | 105 µM |
| CN(C)CC/C=C1\c2ccc(F)cc2Sc2cc(F)c(Cl)cc21 | 32.4 µM |
| O=C1OCCN1/N=C/c1ccc([N+](=O)[O-])o1 | 33.1 µM |
| O=C(C[n+]1cnn(CC(=O)c2ccc(Cl)cc2Cl)c1)c1ccc([N+](=O)[O-])cc1 | 37.4 µM |
| Clc1cccc(/C=N\Nc2nccs2)c1 | 18.6 µM |
| O=C(Cn1cc[n+](CC(=O)c2ccc(Cl)cc2Cl)c1)c1ccc(Cl)cc1Cl | 37.5 µM |
| Cc1cc(N/N=C/c2ccc(O)cc2)c2cccc(C)c2n1 | 39.9 µM |
| Fc1ccc(CCNCc2ccccc2Cl)cc1 | 73.4 µM |
| Cc1ccc(C(OCC(O)CNCc2ccc(F)cc2)c2ccccc2)cc1 (configuration not stated) | 48.4 µM |
| CO/N=C(/C(=O)N[C@@H]1C(=O)N2C(C(=O)O)=CCS[C@H]12)c1cnc(N)s1 | 18.6 µM |
| CC(=O)c1cc(O)c2ccccc2c1O | 111 µM |
| CCn1cc(C(=O)O)c(=O)c2cc(F)c(N3CCN(C(=S)NC(=O)c4ccccc4)CC3)cc21 | 18 µM |
| CCn1cc(C(=O)O)c(=O)c2cc(F)c(N3CCN(C(=S)NC(=O)c4cccc(F)c4)CC3)cc21 | 18.6 µM |
| Cc1ccc(S(=O)(=O)NNc2ccccc2)c(C)c1 | 38.3 µM |
| C[C@H]1COc2c(C3(N)CC3)c(F)cc3c(=O)c(C(=O)O)cn1c23 | < 0.23 µM |

| Structure (SMILES) | IC50 |
| --- | --- |
| Oc1c(CN2CCCCC2)cc(Br)c2cccnc12 | 17.8 µM |
| O=[N+]([O-])c1cc([N+](=O)[O-])c2cccnc2c1Oc1ccccc1O | 81.3 µM |
| CC(NCC(O)COCCC12CC3CC(CC(C3)C1)C2)c1ccccc1 (configuration not stated) | 31.4 µM |
| c1ccc(-c2nc3ccccc3[nH]2)cc1 | 48 µM |
| CCCCOc1ccc(CN=C(N)N)cc1Cl | 134 µM |
| CCN(CC(=O)NC(C)(C)C)C(=O)COc1c(Cl)cc(Cl)c2ccc(C)nc12 | 41.4 µM |
| CCOC(=O)C1=C(O)c2ccccc2C(=O)/C1=C\c1ccc(C)cc1 | 142 µM |
| CCN1c2ccccc2NC2N=C(OC)C(c3ccccc3)C21 (configuration not stated) | 78.9 µM |
| CCCCCNc1nc(N2CCCC2)c2c(c1C#N)CCN(C)C2 | 53.6 µM |
| CCCC(=O)NC(c1ccco1)c1cc([N+](=O)[O-])c2cccnc2c1O (configuration not stated) | 38.9 µM |
| C(=N/Nc1nccs1)/c1cccnc1 | 46.4 µM |
| O=C(/C=C/c1cccs1)NC(=S)NNC(=O)c1ccccc1O | 35.2 µM |
| N=c1n(CCN2CCCCC2)c2ccccc2n1CC(O)c1ccc(Cl)c(Cl)c1 (configuration not stated) | 37.1 µM |
| CCCCOCCCNc1ncnc2c1[nH]c1ccccc12 | 71.1 µM |
| S=C(NCc1ccc(Cl)cc1)Nc1ccncc1 | 19.1 µM |
| CCn1cc(C(=O)O)c(=O)c2cc(F)c(N3CCN(C(=S)NC(=O)c4ccccc4F)CC3)cc21 | 55.1 µM |
| CC(Nc1nc(N2CCCC2)nc2ccccc12)c1ccccc1 (configuration not stated) | 69.2 µM |
| OC(c1cc(C(F)(F)F)nc2c(C(F)(F)F)cccc12)C1CCCCN1 (configuration not stated) | 20.3 µM |
| CN(C)CCCNc1c2ccccc2nc2ccccc12 | 34.8 µM |
| COC(=O)C(C)NC(=S)N1CCN(c2c(F)cc3c(=O)c(C(=O)O)cn(C4CC4)c3c2OC)CC1C (configuration not stated) | 17.1 µM |
| O=c1c2c([nH]c3ccccc13)CCCCC2 | 43.6 µM |
| CCN1/C(=C/C(C)=C/c2sc3ccccc3[n+]2CC)Sc2ccccc21 | 4.88 µM |
| COc1cc(C)c(Cc2cnc(N)nc2N)cc1OC | 2.88 µM |

| Structure (SMILES) | IC50 |
| --- | --- |
| CCN(CCC(=O)Nc1ccc(Br)c(C)c1)Cc1ccccc1 | 75.1 µM |
| Oc1ccc(CN2CCN(c3ccccc3)CC2)c2cccnc12 | 147 µM |
| Clc1ccc2c(c1)C(N1CCNCC1)Cc1ccccc1S2 (configuration not stated) | 35.5 µM |
| NC1=NC[C@@H](Cc2ccc(O)cc2)N1CCCCC1CCCCC1 | 13.7 µM |
| Cc1ccc(C[n+]2c(-c3ccc(C)cc3)cc(-c3ccc(C)cc3)cc2-c2ccc(C)cc2)cc1 | 20.1 µM |
| O=c1[nH]c(-c2ccccn2)nc(C(F)(F)F)c1Br | 70.2 µM |
| Cc1cc(N/N=C/c2ccc(F)cc2)nc(NCc2ccccc2)n1 | 55.2 µM |
| O=C1CSC(=S)N1c1cccc(O)c1 | 126 µM |
| O=C(N/N=C/c1cc(Br)cc(Br)c1O)c1ccncc1 | 43.9 µM |
| C#CCOCCOCCOCCNc1nc(N2CCN(C(=O)CCCCCCCCCCNC(=O)Cn3cc(CCCCCN)nn3)CC2)nc(N2CCN(C(=O)CCCCCCCCCCNC(=O)[C@@H]([C@H](C)O)n3cc(C)nn3)CC2)n1 | 114 µM |
| CCCOc1ccc(C(=O)NNC(=S)NC(C)=O)cc1 | 35.5 µM |
| Cc1c(Cl)cccc1Nc1nc(NCCO)c2ccccc2n1 | 10.8 µM |
| [O-][n+]1cccc2c(Br)cc(Br)c(O)c21 | 69.1 µM |
| Cc1cccc(NC2=NC3(CCCCC3)N=C(N)N2)c1 | 36.8 µM |
| CN(C)c1ccc(O)c2c1CC1CC3[C@@H](N(C)C)C(=O)C(C(N)=O)=C(O)[C@]3(O)C(=O)C1=C2O (some centres not stated) | 8.82 µM |
| O=C(O)/C(=C\C(=O)c1ccccc1)Nc1ccccc1 | 39.4 µM |
| Oc1[nH]c2ccccc2c1N=NC(=S)N1CCOCC1 | 35.7 µM |
| COc1cc(CNCCc2c[nH]c3ccccc23)ccc1OCc1ccccc1F | 133 µM |
| Cc1ccc(NC(=O)CSC(N)=O)cc1Cl | 10.4 µM |
| O=C(C[n+]1cc(-c2ccc(Cl)cc2)n2c1CCC2)Nc1nc(-c2ccccc2)cs1 | 22 µM |
| CC1CCc2c(N3CCC(O)CC3)c(F)cc3c(=O)c(C(=O)O)cn1c23 (configuration not stated) | 3.02 µM |
| CCN1CCN(CCNC(=O)c2ccc3c(c2)N(Cc2ccc(F)cc2)C(=O)/C(=C/c2ccccc2)S3)CC1 | 44.8 µM |
| CN1CC(C(=O)c2ccc(Cl)cc2)C(c2ccc(Cl)cc2Cl)C1 (configuration not stated) | 37.4 µM |

| Structure (SMILES) | IC50 |
| --- | --- |
| COc1cc(CNCCO)cc(Cl)c1OCc1ccc(Cl)cc1Cl | 38 µM |
| CO[C@H]1C=CO[C@@]2(C)Oc3c(C)c(O)c4c(O)c(c(C=NN5CCN(C)CC5)c(O)c4c3C2=O)NC(=O)C(C)=CC=C[C@H](C)[C@H](O)[C@@H](C)[C@@H](O)[C@@H](C)[C@H](OC(C)=O)[C@@H]1C | 21.1 µM |
| O=C(NC1CCCC1)c1ccc(Br)s1 | 20.3 µM |
| Cc1ccc(-c2csc(NC(=O)C[n+]3cc(-c4ccccc4)n4c3CCC4)n2)cc1 | 20.7 µM |
| Cc1cccc2sc(N(CCCN(C)C)C(=O)COc3ccc(Cl)cc3)nc12 | 38.6 µM |
| CCOc1ccc(Nc2c3ccccc3nc3ccccc23)cc1 | 10.2 µM |
| Oc1c(I)cc(Cl)c2cccnc12 | 9.4 µM |
| O=C(/C=C/c1ccccc1)NC(=S)NNC(=O)c1cnccn1 | 29.7 µM |
| c1cc2c(cc1C1CCCCC1)c1c3n2CCCNC3CCC1 (configuration not stated) | 31.2 µM |
| CCCCCc1ccc(OCCC[n+]2ccccc2)c(CCCCC)c1 | 39.5 µM |
| COCCCNC(=S)NNC(=O)c1ccccn1 | 37.4 µM |
| Oc1[nH]c2ccc(Br)cc2c1N=NC(=S)N1CCOCC1 | 36.6 µM |
| Cc1ccc2c(c1)c1c(n2CC(O)CN2CCC(C)CC2)CCCC1 (configuration not stated) | 78.3 µM |
| O=C(N/N=C/c1ccccn1)c1cccs1 | 71.6 µM |
| CCCOc1ccc(C(=O)NNC(=S)NC(=O)CC)cc1 | 47.7 µM |
| O=c1cc(-c2ccccc2)cc(-c2ccccc2)n1O | 19.2 µM |
| C[C@H]1c2cccc(O)c2C(O)=C2C(=O)[C@]3(O)C(O)=C(C(N)=O)C(=O)[C@@H](N(C)C)C3[C@@H](O)C21 (some centres not stated) | 1.91 µM |
| CCc1ccc(N2CC(C(=O)N/N=C/c3cc([N+](=O)[O-])ccc3O)CC2=O)cc1 (configuration not stated) | 55.8 µM |
| CN(C)CCCN1c2ccccc2Sc2ccccc21 | 114 µM |
| c1ccc2c(NCCc3c[nH]c4ccccc34)c3ccccc3nc2c1 | 36.3 µM |
